Data: paper doi:10.1101/2025.06.02.657523v1 (biorxiv, 2025)

Target: RSK4 (Homo sapiens, UniProt Q9UK32)
Test: Kinase-Glo Plus luminescence kinase assay
Format: biochemical
Conditions: […] ATP, […] MgCl2, pH […] °C, […] min, […] DMSO

Sequence of RSK4 (Q9UK32 whole entry): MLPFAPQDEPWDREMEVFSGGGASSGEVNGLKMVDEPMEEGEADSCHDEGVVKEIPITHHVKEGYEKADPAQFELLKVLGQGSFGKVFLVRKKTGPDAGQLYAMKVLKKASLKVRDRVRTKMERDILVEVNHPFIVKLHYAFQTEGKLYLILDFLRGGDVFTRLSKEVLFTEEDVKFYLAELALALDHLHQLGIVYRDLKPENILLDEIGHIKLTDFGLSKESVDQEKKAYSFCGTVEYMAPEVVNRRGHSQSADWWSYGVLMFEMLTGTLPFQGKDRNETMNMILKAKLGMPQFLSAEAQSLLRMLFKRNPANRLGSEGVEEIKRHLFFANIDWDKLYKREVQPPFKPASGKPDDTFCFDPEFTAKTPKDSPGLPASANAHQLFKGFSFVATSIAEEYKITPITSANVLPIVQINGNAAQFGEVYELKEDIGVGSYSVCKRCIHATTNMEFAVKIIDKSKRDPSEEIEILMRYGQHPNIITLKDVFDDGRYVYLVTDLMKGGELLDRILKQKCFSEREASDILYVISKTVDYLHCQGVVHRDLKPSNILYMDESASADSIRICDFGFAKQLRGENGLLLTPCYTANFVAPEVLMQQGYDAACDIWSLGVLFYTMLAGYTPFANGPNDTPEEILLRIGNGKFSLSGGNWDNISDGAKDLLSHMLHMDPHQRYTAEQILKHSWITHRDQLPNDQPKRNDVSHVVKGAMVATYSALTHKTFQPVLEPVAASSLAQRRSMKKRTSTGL

IC50 [nM]	Compound
45.9 ± 3.11	Cc1cc(=O)n(C2CCCCC2)c2nc(Nc3ccc4[nH]ccc4c3)ncc12 [R635, 2-((1H-indol-5-yl)amino)-8-cyclohexyl-5-methylpyrido[2,3-d]pyrimidin-7(8H)-one]
86.3 ± 40.7	Cc1cc(=O)n(C2CCC(F)(F)C2)c2nc(Nc3ccc4c(c3)CC(=O)N4)ncc12 (centres unmarked) [R634]
